This is an account of results in US5925333A, “Methods for modulation of lipid uptake” (Massachusetts Institute of Technology, priority 1995, dated 1999).

The subject of experiment [1] is adrenal tissues. Nature of the experiment: Uptake of lipid from fluorescently labeled HDL injected into estrogen-treated rats, adrenal. Type of experiment: in vivo, rat. The settings on record: fluorescently labeled HDL injected into estrogen-treated vs sham-injected rats.
Experiment [2] relates to liver cells. Nature of the experiment: Uptake of lipid from fluorescently labeled HDL injected into estrogen-treated rats, liver. It is filed as in vivo, rat. The settings on record: fluorescently labeled HDL injected into estrogen-treated vs sham-injected rats.
Experiment [3] concerns LDL receptor. Nature of the experiment: Immunoblot of LDL receptor expression in estrogen-treated rats. The settings on record: 5 mg/kg subcutaneous for five consecutive days, vs sham, liver. It is filed as in vivo, rat.
The subject of experiment [4] is SR-BI. Nature of the experiment: Immunoblot of SR-BI expression in tissues of estrogen-treated rats. Type of experiment: in vivo, rat. The settings on record: 5 mg/kg subcutaneous for five consecutive days. As to the method:
To determine the size of mSR-BI and its tissue distribution, a rabbit anti-mSR-BI polyclonal antibody was prepared by immunization of a 16 amino acid peptide (residues 495 to 509 from the predicted protein sequence of mSR-BI plus an additional N-terminal cysteine) coupled to keyhole limpet hemocyanin. This is referred to as anti-mSR-BI^495 antiserum. The antiserum was used for immunoblot analysis of cultured cells and murine tissues.
Post-nuclear cell extracts from ldlA and ldlA[mSR-BI] cells and membranes (post-nuclear 100,000×g pellets) from murine tissues were isolated, reduced, and separated by 6.5% SDS-polyacrylamide gel electrophoresis (50 μg protein/lane), transferred to nitrocellulose and probed with a primary anti-mSR-BI^495 antipeptide antibody (rabbit IgG fraction, 1:5000 dilution) and developed using a horseradish peroxidase labeled second antibody and ECL kit (5 min exposure, Amersham). Ponceau S staining was used as a control for gel loading and transfer.
Tissues of estrogen-treated rats were screened for expression of SR-BI as described above following treatment of rats with 17-α-ethylenyl estradiol (estrogen). The rats were treated for five consecutive days with subcutaneous injections of 5 mg/kg 17-α-ethylenyl estradiol in propylene glycol or with propylene glycol alone (sham-injected).
(In general: In western blotting, separated proteins are transferred to a membrane and probed.)

In experiment [5] the target is murine scavenger receptor protein type BI (mSR-BI) (murine).
Experiment [6] has the same target. The source holds these as a separate data set.

For the substance 17-α-ethylenyl estradiol [estrogen], the “Uptake of lipid into adrenal tissues” value in experiment [1] is on record as “dramatically increased”. The “Uptake of HDL-derived lipids into liver cells” value in experiment [2] was “no similar uptake”. Also, in experiment [3], the LDL receptor expression entry is reported as “tremendous upregulation”. Moreover, the “SR-BI expression in liver” value in experiment [4] (vs sham, liver) is recorded as “dramatically downregulated”. In addition, in experiment [4] (vs sham, lung, testes and skin), the “SR-BI levels in tissues showing trace signal” value was “no change”. In experiment [4] (vs sham-injected controls, adrenal membranes), the “SR-BI expression in rat adrenal membranes” value is recorded as “upregulation”.

In experiment [5], “high density lipoprotein (HDL) prepared from human plasma (from UniProt P02647)” came in with a cell association of the lipid-labeled component of HDL (3H-cholesteryl oleate or DiI) of 18%. This substance also gave a total cellular cholesterol (free and esterified) after incubation with unlabeled HDL (20 µg protein/ml, 5 hrs) in experiment [6] of 20 % increase.
